What was measured:
Format in all cases: cell-based
[1] = test system: RAJI cells; assay: Matador assay, Digitonin-induced death of RAJI cells expressing luciferase reporters
Experimental: A similar experiment was conducted with K562, HEL-91-1-17 and RAJI cells stably expressing NLuc from pLENTI-NLuc-AcV5-Blasticidin-Pa08 vector (SEQ ID NO: 92). Cells plated in 30 μl of medium per well were either treated with 30 μl of PBS or 30 μl of PBS containing Digitonin (final concentration 30 μg/ml) for 1 hour at 37° C., in a 5% CO2 incubator. For measurement of NLuc activity, 0.5×CTZ assay buffer was added by automated injector directly to each well of the 384-well white plate containing cells in 60 μl of volume (30 μl of RPMI-10% FBS+30 μl of Digitonin) without prior cell lysis and plates were read for luminescence using BioTek synergy H4 plate reader in well mode.
Briefly, 20000 cells in 20 μl media were plated in each well of a 384 well plate followed by addition of 20 μl of Digitonin (final concentration 30 μg/ml) or media alone (20 μl) and incubated for 90 minutes.

[2] = test system: K562 cells; assay: Matador assay, death of K562 reporter cells induced by Digitonin or lytic reagent
[3] = test system: 293FT cells; assay: Matador assay, Digitonin-induced death of transiently transfected 293FT cells
Experimental: The 293FT cells were transfected in a 24-well plate with various expression plasmids (500 ng/well) using calcium phosphate. Approximately, 18 hours post-transfection, the cells were either left untreated or treated with 30 μg/ml Digitonin to induce cell death, followed by the detection of luminescence as described under luciferase assays.
293FT cells were transfected with pLenti-CBGRluc construct in a […]. 72 hours post-transfection, cells were trypsinized and plated in 6-well plates. For induction of cell death, cells in some wells were treated with Digitonin (50 μg/mL final concentration). CBGRluc activity was determined by adding assay buffer (1 mM D-Luciferin, 25 mM glycylclycine, 15 mM potassium phosphate, 15 mM MgSO4, 4 mM EGTA, 2 mM ATP, and 1 mM DTT) in a well mode. The assay buffer with substrate was added at 1:1 (v/v) ratio.
The MLuc7 cDNA also carried M43L and M110L substitutions. […] The mammalian expression vectors encoding the non-secretory forms of the above luciferase cDNAs were transiently transfected into 293FT cells by calcium phosphate co-precipitation method. […] 6 wells were treated with Digitonin and 6 wells were left untreated. Luciferase activity was measured by addition of coelentrazine containing assay buffer directly to each well.
The indicated luciferase constructs in either retroviral or lentiviral vectors were transiently transfected into 293FT cells by calcium phosphate co-precipitation method. Approximately 18 hours post-transfection, cells were treated with Digitonin for 90 minutes or left untreated (control). […] Essentially a similar procedure was used with a construct encoding Lucia-Luc.
293FT cells were transiently transfected with the above construct or left untransfected. Approximately 18 hours post-transfection, cells were treated for 90 min with Digitonin (final concentration 30 μg/ml) or left untreated. After the 90 minute incubation, 200 μl supernatant was collected from each well in a 1.5 ml tubes. The tubes were spun down at 1500 RPM for 5 minutes.
We next examined if the Matador cytotoxicity assay developed by us is limited to only luciferase proteins or can be adapted to any other protein that is not endogenously expressed by the target cells. For this purpose, we transiently transfected 293FT cells by calcium phosphate co-precipitation method with an expression plasmid encoding enhanced green fluorescent protein (GFP) or HA-epitope tagged-mCherry. Approximately 24 post-transfection, the transfected cells were either left untreated or treated with Digitonin to induce cell death. The cells were collected in tubes and centrifuged at 2,000 rpm for 5 min. Cell supernatant was collected in a new set of tubes and cell pellet were washed with cold phosphate-buffered saline twice and lysed in lysis buffer containing 20 mM Tris-HCl, pH 8.0, 500 mM NaCl, 0.25% Triton X-100, 1 mM EDTA, 10 mM β-glycophosphate, 10 mMNaF, 1 mM DTT, 1× protease inhibitor mixture (Roche Molecular Biochemicals) at 4° C. for 30 min. After incubation, the mixture was pippetted five or six times to disperse the cells followed by centrifugation at 14,000 rpm at 4° C. for 10 min. The cell lysates were collected as whole cell extracts, and protein concentration was determined by using Bio-Rad protein assay reagent. 30 μl of cell supernatant or 30 μg of whole cell extracts were heated in the presence of SDS-PAGE sample buffer and loaded on 10% SDS-PAGE gel followed by transferring to nitrocellulose membranes. These membranes were incubated with primary antibodies against specified proteins in Tris-buffered-saline with Tween 20 followed by incubation with secondary antibody (IRDye 800CW conjugates of goat anti-rabbit IgG; Li-Cor) and development with Odyssey Infrared Imaging System CLx (Li-Cor Biosciences). The secondary antibody was used at a 1:10,000 dilution.

[4] = test system: primary leukemia blast cells (Chrt3); assay: Matador assay on primary leukemia blast cells expressing GLuc; conditions: two additional primary leukemia samples; Digitonin; present tense
Experimental: To examine if this assay can be also used to measure death of primary cells, leukemic blasts were isolated from a de-identified leukemia patient using Ficoll-Hypaque gradient centrifugation and then transduced with pLenti-EF1a-Pac-T2A-Gluc-B07 (SEQ ID NO: 94) lentiviral vector to generate primary leukemia blast cells (Chrt3) expressing the non-secretory form of GLuc cDNA. Briefly, 1 million primary leukemic blasts were cultured in XVIVO medium in a 6-well plate in the presence of GLuc lentiviral supernatant and polybrene (5 μg/ml) and centrifuged at 2,800 rpm at 32° C. for 2 hours followed by incubation of cells at 37° C. for 24 hours in XVIVO medium. To measure the killing of Chrt3-GLuc cells, the transduced cells were plated at a density of 20,000 cells per well in 30 μl of medium in triplicate in a white 384 well plate and co-cultured with the effector cells for 4 hours at an E:T ratio of 0.125:1. Cell death was assayed by the single-step homogenous GLuc assay by injecting 0.5×CTZ assay buffer in well mode. […] Two additional primary leukemia samples are infected with GLuc encoding lentiviral vector and cell death is induced by treatment with Digitonin.

With `C[C@@H]1CC[C@@]2(OC1)O[C@H]1[C@@H](O)[C@H]3[C@@H]4CC[C@H]5C[C@@H](O[C@@H]6O[C@H](CO)[C@H](O[C@@H]7O[C@H](CO)[C@@H](O)[C@H](O[C@@H]8OC[C@@H](O)[C@H](O)[C@H]8O)[C@H]7O[C@@H]7O[C@H](CO)[C@H](O)[C@H](O[C@@H]8O[C@H](CO)[C@@H](O)[C@H](O)[C@H]8O)[C@H]7O)[C@H](O)[C@H]6O)[C@H](O)C[C@]5(C)[C@H]4CC[C@]3(C)[C@H]1[C@@H]2C` [Digitonin] the TLuc activity ([1]; RAJI cells expressing TurboLuc16, Digitonin 90 min) was “increase in TLuc activity”, the GLuc luciferase activity ([1]; RAJI cells stably expressing GLuc from MSCVhygro-GLuc-HA-G02, Digitonin) was “Essentially similar results” and the NLuc activity ([1]; RAJI cells stably expressing NLuc, Digitonin 30 μg/ml, 1 hour) was “increase in NLuc activity”. For the same compound, the “FfLuc and GLuc activities” value ([1]; Raji cells expressing both GLuc and FfLuc, Digitonin 30 μg/ml, 90 minutes) was “increase in both FfLuc and GLuc activities”, the MLuc7 activity ([2]; K562-MLuc7 (additional example), Digitonin 30 μg/ml, 1 cell/well to 10K cells/well) was “increase in MLuc7 activity” and the MLuc7 activity ([2]; K562-MLuc7, Digitonin 1 hour, 1 cell/well to 400K cells/well) was “increase in MLuc7 activity”. The “NLuc luminescence in the supernatant” value ([2]; K562-NLuc, Digitonin 1 h, all three assay buffers) was “increase in luminescence”, the TLuc activity ([2]; K562 cells expressing TurboLuc16, Digitonin 90 min) was “increase in TLuc activity” and the “FfLuc and GLuc activities” value ([2]; K562 cells expressing both GLuc and FfLuc, Digitonin 30 μg/ml, 90 minutes) was “increase in both FfLuc and GLuc activities”. The LucPPe-146-1H2 activity ([2]; K562 cells stably expressing LucPPe-146-1H2, Digitonin 30 μg/ml) was “increase in LucPPe-146-1H2 activity”, the NLuc activity ([2]; K562 cells stably expressing NLuc, Digitonin 30 μg/ml, 1 hour) was “increase in NLuc activity” and the “Renilla Luc activity” value ([2]; K562 cells stably expressing Renilla Luc, Digitonin 2 hours) was “increase in Renilla Luc activity”. For the same compound, the “Luc49-7C6A, Luc78-0B10, Luc133-IB2 and LucPpL-81-6G1 activities” value ([2]; K562 cells stably expressing these luciferases, Digitonin 30 μg/ml, example in present tense) was “increase in Luc49-7C6A, Luc78-0B10, Luc133-IB2 and LucPpL-81-6G1 activities”, the “LucPPe-146-1H2 and NLuc luminescence” value ([2]; K562 co-expressing both luciferases, Digitonin 30 μg/ml, 90 minutes, Dual-Luciferase Reporter Assay System) was “increase in both LucPPe-146-1H2 and NLuc luminescence” and the “LucPPe-146-1H2 and NLuc activities” value ([2]; K562 co-expressing both luciferases, Digitonin, measured in different wells with D-luciferin and CTZ assay buffers) was “increase in both LucPPe-146-1H2 and NLuc activities”. The luciferase activity ([3]; FfLuc construct, Digitonin 30 μg/ml, 90 min, supernatant) was “increase in luciferase activity”, the “fluorescence in cell supernatant” value ([3]; GFP and mCherry-HA transfected, Digitonin) was “significant increase in fluorescence” and the “GFP release in the supernatant fraction (Western blotting)” value ([3]; GFP transfected, Digitonin) was “increase in GFP release in the supernatant fraction”. The “mCherry release in the supernatant fraction (Western blotting)” value ([3]; HA-mCherry transfected, Digitonin) was “increase in mCherry release in the supernatant fraction”, the LucPPe luciferase activity ([3]; LucPPe-146-1H2 transient transfection, Digitonin) was “increase in LucPPe luciferase activity” and the Luc activity ([3]; MYR-GGS-GLuc construct, Digitonin 30 μg/ml, 90 min, supernatant) was “increase in Luc activity”. For the same compound, the “increase in alkaline phosphatase activity in the cell supernatants” value ([3]; constructs encoding human embryonal alkaline phosphatase lacking the secretory signal, Digitonin 90 min) was “greater than 3 fold”, the alkaline phosphatase activity ([3]; empty vector or plasmid encoding the secretory form of human embryonal alkaline phosphatase, Digitonin 90 min) was “little or no increase” and the CBGRluc activity ([3]; pLenti-CBGRluc transfected, Digitonin 50 μg/mL) was “increase in CBGRluc activity”. The “luciferase activity in the cell-free supernatants” value ([3]; transfected with GLuc, NLuc, MLuc7, TLuc16, Paluc1, Htluc1, Loluc, RLuc, Lucia-Luc, Digitonin 90 minutes) was “increase in luciferase activity”, the luciferase activity ([3]; transfected with HtLuc, LoLuc, MLuc7, Digitonin) was “increase in luciferase activity” and the GLuc activity [4] was “increase in GLuc activity”.

Reference: US11307205B2, “Non-radioactive cytotoxicity assays” (University of Southern California, priority 2016, dated 2022)
